The target in one data set is T1, BuChE from horse serum (Equus caballus, UniProt P81908).
T1 construct: BuChE from horse serum (C4290-1KU; Sigma); purchased Sigma C4290-1KU; host or cells: horse serum
In words: biochemical. The following applies: for inhibition at 20 µM: read-out: BuChE % inhibition at 20 µM. The data set is classed as biochemical. As for the experimental part: (§1) According to Ellman's method, assays were carried out on AChE from electric eel (C3389-500UN; Sigma) and BuChE from horse serum (C4290-1KU; Sigma). On a final volume of 500 μL, the experiment was carried out in 48-well plates. EeAChE or eqBuChE, 0.036 U/mL, and 0.1 M pH 8 phosphate buffer were added to each well. At 37 °C, they were pre-incubated for 20 min at various chemical concentrations. […] Along with the enzymatic breakdown of ACh or BuCh, the DTNB creates the yellow anion 5-thio-2-nitrobenzoic acid. In a Biotek Synergy HTX Multi-Mode reader, changes in absorbance were detected at 410 nm. Inhibition curves were used to calculate the IC50 values (log inhibitor concentration vs percent of inhibition). The same conditions were used in a control experiment without the inhibitor, and the blank comprised buffer, DMSO, DTNB, and substrate.
(§2) The IC50 values were calculated by SPSS 17.0.

Another data set addresses T2, AChE from electric eel (Electrophorus electricus, UniProt O42275).
T2 construct: AChE from electric eel (C3389-500UN; Sigma); purchased Sigma C3389-500UN
The experiment in a line: EeAChE inhibition assay (Ellman's method). The note with it: for inhibition at 20 µM: read-out: AChE % inhibition at 20 µM, 20 µM, na = no inhibitory activity at 20 µM; for IC50: mean ± SEM; for AChE % inhibition at 20 µM: na = no inhibitory activity at 20 µM. The data set is classed as biochemical. As for the experimental part:
as §1, §2

The nature of the next data set: in vitro. The note with it: PAMPA; for Papp: pH 7.4. From the text: Based on prior work[40]^,[41], a parallel artificial membrane permeation assay (PAMPA) for the blood-brain barrier (BBB) was used to determine the ability of the test chemical to penetrate into the brain. Six commercial medicines were purchased from Aladdin Reagents to validate the methodology. Energy Chemical provided the DMSO and dodecane. Avanti Polar Lipids provided the porcine brain lipid (PBL). Millipore provided the donor 96-well filter microplate with a PVDF membrane (pore size […]) and the acceptor indented 96-well microplate. Corning Inc. provided the 96-well UV plate (COSTAR). DMSO was used to dissolve commercial medications and test compounds at a concentration of 20 mg/mL. They were then diluted 200 times in a solution of PBS (pH 7.4 ± 0.1)/EtOH (70/30, v/v) to achieve a final concentration of 100 µg/mL. The donor microplate's fifilter membrane was coated with 4 µL of PBL in dodecane (20 mg/mL). The donor wells were then filled with 200 µL of diluted chemical solution and 300 µL of PBS/EtOH (70/30, v/v). To make the membrane contact with buffer solution, the donor fifilter plate was carefully positioned on top of the acceptor plate to form a “sandwich” assembly. At 25 °C, the sandwich was left undisturbed. The donor plate was carefully removed after 18 h of incubation, and the concentrations of test chemicals in the donor and acceptor wells were quantified using a UV plate spectroscopic reader (PerkinElmer VICTOR Nivo, Finland). Each sample was analysed at three wavelengths, in at least three independent experiments, in four wells.
Pe, permeability, refers to the ability of compounds to permeate the membranes through passive diffusion in the blood-brain barrier penetration assays.
(PAMPA measures passive passage across an artificial lipid membrane.)

The next data set has as its system male ICR mice. The note with it: Aβ1–42 10 µg icv, K3 10 mg/kg po, donepezil 15 mg/kg po, Day 3 to Day 14.
Setting [1] is: BuChE from horse serum, 20 µM, na = no inhibitory activity at 20 µM.

Like-named read-outs stand apart in the source and are kept apart here.

T2 sequence (O42275 24-633): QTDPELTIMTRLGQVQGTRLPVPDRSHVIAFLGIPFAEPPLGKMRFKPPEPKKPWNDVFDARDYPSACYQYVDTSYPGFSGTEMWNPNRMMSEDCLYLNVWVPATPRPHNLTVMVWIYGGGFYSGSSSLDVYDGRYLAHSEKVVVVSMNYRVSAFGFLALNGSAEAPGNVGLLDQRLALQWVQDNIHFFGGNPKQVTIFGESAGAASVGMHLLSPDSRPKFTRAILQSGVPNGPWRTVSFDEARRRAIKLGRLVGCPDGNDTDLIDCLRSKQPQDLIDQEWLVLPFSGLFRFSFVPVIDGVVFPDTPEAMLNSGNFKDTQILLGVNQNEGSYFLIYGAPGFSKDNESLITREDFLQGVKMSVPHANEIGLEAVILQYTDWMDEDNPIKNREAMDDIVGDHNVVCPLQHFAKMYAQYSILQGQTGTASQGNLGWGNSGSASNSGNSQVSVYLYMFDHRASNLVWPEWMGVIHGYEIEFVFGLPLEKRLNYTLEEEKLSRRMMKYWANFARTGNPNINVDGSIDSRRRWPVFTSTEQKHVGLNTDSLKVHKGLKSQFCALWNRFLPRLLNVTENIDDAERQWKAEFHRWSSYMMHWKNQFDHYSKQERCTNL
T1 sequence (P81908 whole entry): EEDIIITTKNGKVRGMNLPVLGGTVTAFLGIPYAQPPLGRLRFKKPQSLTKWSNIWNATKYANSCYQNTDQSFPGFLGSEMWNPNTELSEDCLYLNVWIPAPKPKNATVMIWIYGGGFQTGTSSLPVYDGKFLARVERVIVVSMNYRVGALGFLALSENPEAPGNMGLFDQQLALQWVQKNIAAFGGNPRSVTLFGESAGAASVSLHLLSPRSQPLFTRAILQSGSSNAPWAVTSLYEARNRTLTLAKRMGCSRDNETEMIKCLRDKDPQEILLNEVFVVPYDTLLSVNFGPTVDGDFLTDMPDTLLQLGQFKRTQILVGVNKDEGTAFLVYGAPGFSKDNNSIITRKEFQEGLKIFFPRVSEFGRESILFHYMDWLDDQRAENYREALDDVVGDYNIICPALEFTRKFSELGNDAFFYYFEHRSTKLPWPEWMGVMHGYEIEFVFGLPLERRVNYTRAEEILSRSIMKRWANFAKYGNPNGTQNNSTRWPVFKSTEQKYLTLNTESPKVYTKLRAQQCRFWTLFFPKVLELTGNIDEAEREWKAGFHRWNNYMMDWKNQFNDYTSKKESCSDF
Text for male ICR mice: The National Institutes of Health Guide for the Care and Use of Laboratory Animals was followed for all experiments. The Animal Care and Use Committee of Anhui Medical University adopted the Measures for the Care and Treatment of Laboratory Animals. In Anhui Medical University's animal centre, male ICR mice were employed (Hefei). […] Throughout all of the experiments, the room's ambient temperature and relative humidity (50%) remained constant. […] 8‒10 animals were used in each study group. The experimental time was from 08: 00 to 14: 00, and the mice were sacrificed by cervical dislocation shortly after the experiment ended. […] Aβ1–42 aggregation was induced by dissolving the Aβ1–42 peptide in DMSO as a stock solution of 5 mM and incubating it in saline at a final concentration of 2 mg/mL for 24 h at 37 °C.

As to `Cc1cc(OS(=O)(=O)F)n(-c2ccc(Cl)cc2)n1` [Compound K15], at BuChE from horse serum, the IC50 (in general, the point on the concentration scale where inhibition reaches its midpoint) amounted to 5.26 ± 0.39 µM. Moreover, the inhibition (commonly the change of the read-out against control, counted positive when it falls) at 20 µM on AChE from electric eel is 45.2 ± 1.3%.

Regarding `CC(C)c1cc(OS(=O)(=O)F)n(-c2ccccc2)n1` [Compound K20], on BuChE from horse serum, the IC50 came out at 11.25 ± 0.11 µM. Besides, the inhibition at 20 µM on AChE from electric eel amounted to 41.6 ± 0.7%.

For the compound `COc1ccc(-n2nc(-c3ccccc3)cc2OS(=O)(=O)F)cc1` [Compound K6], the inhibition at 20 µM at BuChE from horse serum was found to be 47.9 ± 1.9%; on AChE from electric eel it was 25.7 ± 1.5%.

On to `O=S(=O)(F)Oc1cc(-c2ccccc2)n[nH]1` [Compound K10], for which the IC50 on BuChE from horse serum was 6.92 ± 1.41 µM. In addition, the inhibition at 20 µM on AChE from electric eel is 32 ± 1.2%.

With `Clc1cccc(Cl)c1N=C1NCCN1` [Clonidine], in “in vitro”, the BBB penetration entry is listed as “CNS+” and the Papp (commonly a coefficient for how fast a substance crosses the barrier) came to 8.3 ×10⁻⁶ cm/s.

For the compound `Cc1ccc(-n2nc(C(C)C)cc2OS(=O)(=O)F)cc1C` [Compound K23], on BuChE from horse serum, the IC50 was found to be 3.98 ± 0.09 µM. The inhibition at 20 µM at AChE from electric eel worked out at 21.4 ± 1.1%.

`CCCc1cc(OS(=O)(=O)F)n(-c2ccc(Cl)cc2)n1` [Compound K24]: the IC50 on BuChE from horse serum worked out at 4.59 ± 0.06 µM. On AChE from electric eel, the inhibition at 20 µM amounted to 41.8 ± 0.2%.

With `Cc1cccc(-n2nc(C)cc2OS(=O)(=O)F)c1` [Compound K17], the IC50 on BuChE from horse serum was found to be 19.2 ± 0.69 µM. Further, the inhibition at 20 µM on AChE from electric eel turned out to be 33.4 ± 1.3%.

As to `Cc1ccc(-n2nc(C(C)C)cc2OS(=O)(=O)F)cc1` [Compound K22], the half-maximal inhibitory concentration (IC50) at BuChE from horse serum was 18 ± 0.34 µM; at AChE from electric eel it was 2.6 ± 0.27 µM.

Turning to `CC(C)c1cc(OS(=O)(=O)F)n(-c2ccc(F)cc2)n1` [Compound K21], the half-inhibitory concentration (IC50) amounted to 6.9 ± 0.42 µM at BuChE from horse serum and 7.79 ± 0.07 µM on AChE from electric eel.

`COc1cc2c(cc1OC)C(=O)C(CC1CCN(Cc3ccccc3)CC1)C2` (stereo not shown) [Donepezil, reference compound]: the “effect on Aβ1–42-induced cognitive dysfunction (MWM)” value in the data set on male ICR mice is on record as “significantly improved”.

As for `O=C1CC(c2ccccc2)=NN1c1ccccc1` [Compound M1], the inhibition at 20 µM on AChE from electric eel stood at 8.8 ± 2.6%.

For the compound `Cc1cc(OS(=O)(=O)F)n(C(C)(C)C)n1` [Compound K19], the “BuChE % inhibition at 20 µM” value at BuChE from horse serum (setting [1]) is “no activity”.

For the compound `Cc1ccc(-n2nc(-c3ccccc3)cc2OS(=O)(=O)F)cc1C` [Compound K5], the IC50 on BuChE from horse serum is 2.23 ± 0.31 µM. Moreover, the inhibition at 20 µM on AChE from electric eel came to 24.4 ± 2.1%.

Take `O=C1CC(c2ccccc2)=NN1c1ccc(Cl)cc1` [Compound M3]: the inhibition at 20 µM on BuChE from horse serum (setting [1]) worked out at 25.4 ± 5.4%; at AChE from electric eel it was 26.9 ± 1%.

For the compound `CCCc1cc(OS(=O)(=O)F)n(-c2ccc(OC)cc2)n1` [Compound K25], at BuChE from horse serum, the IC50 worked out at 3.47 ± 0.04 µM. Besides, the inhibition at 20 µM on AChE from electric eel was determined as 10.3 ± 0.6%.

In “in vitro”, `CN1C(C(=O)Nc2ccccn2)=C(O)c2ccccc2S1(=O)=O` [Piroxicam] showed a Papp of 2.23 ×10⁻⁶ cm/s.

Regarding `Cc1cc(OS(=O)(=O)F)n(-c2ccccc2)n1` [Compound K13], the IC50 at BuChE from horse serum is 9.16 ± 0.53 µM. Besides, on AChE from electric eel, the inhibition at 20 µM worked out at 37.5 ± 1.4%.

With `CC(=O)[C@H]1CC[C@H]2[C@@H]3CCC4=CC(=O)CC[C@]4(C)[C@H]3CC[C@]12C` [Progesterone], the Papp in “in vitro” was determined as 8.1 ×10⁻⁶ cm/s.

As for `O=S(=O)(F)Oc1cc(-c2ccccc2)nn1-c1ccccn1` [Compound K7], the half-inhibitory concentration (IC50) on BuChE from horse serum is 9.89 ± 0.87 µM; on AChE from electric eel, 19.39 ± 0.01 µM.

Regarding `Cc1nn(-c2ccccc2)c(OS(=O)(=O)F)c1C` [Compound K11], the “BuChE % inhibition at 20 µM” value on BuChE from horse serum (setting [1]) worked out at 45.2 ± 1.8%. Also, the “AChE % inhibition at 20 µM” value on AChE from electric eel was 7.2 ± 1.0%.

Regarding `Cc1ccc(N2N=C(c3ccccc3)CC2=O)cc1C` [Compound M4], the inhibition at 20 µM came out at 44.1 ± 13.8% at BuChE from horse serum (setting [1]) and 10.7 ± 1.9% at AChE from electric eel.

Take `CC(C)(C)n1nc(-c2ccccc2)cc1OS(=O)(=O)F` [Compound K9]: the “BuChE % inhibition at 20 µM” value on BuChE from horse serum (setting [1]) worked out at 30.9 ± 1.5%. Also, on AChE from electric eel, the “AChE % inhibition at 20 µM” value was determined as 10.1 ± 0.4%.

For `O=S(=O)(F)Oc1cc(-c2ccccc2)nn1C1CCCCC1` [Compound K8], the IC50 on BuChE from horse serum was 5.84 ± 0.87 µM. The inhibition at 20 µM at AChE from electric eel was 25.1 ± 1.2%.

As for `Cc1ccc(-n2nc(-c3ccccc3)cc2OS(=O)(=O)F)cc1` [Compound K4], the IC50 on BuChE from horse serum stood at 2.35 ± 1.02 µM. The inhibition at 20 µM at AChE from electric eel is 25.9 ± 0.9%.

With `Cc1nn(-c2ccccn2)c(OS(=O)(=O)F)c1C` [Compound K12], the “BuChE % inhibition at 20 µM” value on BuChE from horse serum (setting [1]) was 20.7 ± 1.7%. For the same compound, the “AChE % inhibition at 20 µM” value at AChE from electric eel is given as 42.8 ± 0.8%.

As for `O=S(=O)(F)Oc1cc(-c2ccccc2)nn1-c1ccccc1` [Compound K1], on BuChE from horse serum, the IC50 turned out to be 2.28 ± 0.64 µM. Also, the inhibition at 20 µM on AChE from electric eel was found to be 33.6 ± 1.6%.

Take `O=C1CC(c2ccccc2)=NN1c1ccc(F)cc1` [Compound M2]: the values for the inhibition at 20 µM on BuChE from horse serum (setting [1]) and on AChE from electric eel were 27.7 ± 11.7% and 37 ± 3.3%, respectively.

Regarding `Cc1cc(OS(=O)(=O)F)n(-c2ccc(C)c(C)c2)n1` [Compound K18], at BuChE from horse serum, the IC50 amounted to 3.31 ± 0.7 µM. Moreover, the inhibition at 20 µM on AChE from electric eel worked out at 8.1 ± 0.5%.

In the case of `Cc1cc(OS(=O)(=O)F)n(-c2ccc(F)cc2)n1` [Compound K14], on BuChE from horse serum, the IC50 amounted to 5.5 ± 0.09 µM. At AChE from electric eel, the inhibition at 20 µM was 48.2 ± 1%.

With `O=S(=O)(F)Oc1cc(-c2ccccc2)nn1-c1ccc(F)cc1` [Compound K2], the IC50 at BuChE from horse serum came to 1.73 ± 0.62 µM. The inhibition at 20 µM at AChE from electric eel is 27.5 ± 2.7%.

Take `O=S(=O)(F)Oc1cc(C2CC2)nn1-c1ccccc1` [Compound K26]: the IC50 on BuChE from horse serum amounted to 14.4 ± 1.08 µM; at AChE from electric eel, 4.82 ± 0.07 µM.

For the compound `Cc1cc(OS(=O)(=O)F)n(-c2ccc(Br)cc2)n1` [Compound K16], the IC50 at BuChE from horse serum came to 7.64 ± 0.41 µM. The inhibition at 20 µM on AChE from electric eel worked out at 37.2 ± 0.7%.

Values taken from PMC9448382, “Fluorosulfate-containing pyrazole heterocycles as selective BuChE inhibitors: structure-activity relationship and biological evaluation for the treatment of Alzheimer’s disease” (Journal of Enzyme Inhibition and Medicinal Chemistry, 2022).
